# In PubChem BioAssay AID2060624 (Molecular Pharmacology Branch, DTP, NCI, 2025):
# Tested on: 217524-143-R1-J4-PDC spheroids with HUVEC/MSC, viability
# Assay: Anticancer human tumor 217524-143-R1-J4-PDC patient-derived pancreatic carcinoma cell line growth inhibition [CLK]
# Conditions: for IC50: curve of first compound; for viability, T/C: stronger effect = lower value
# Method in brief: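 Multi-cell-type spheroids combined patient-derived tumor cells with HUVEC endothelial cells and human mesenchymal stem cells. Paired agents were dosed in half-log steps down from about clinical Cmax, or from 10 microM where Cmax was unknown.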
# [1] = second compound 0.0316 µM, first compound 0.0316 µM
# [2] = second compound 0.0316 µM, first compound 0.1 µM
# [3] = second compound 0.0316 µM, first compound 0.316 µM
# [4] = second compound 0.0316 µM, first compound 1 µM
# [5] = second compound 0.0316 µM, first compound 3.16 µM
# [6] = second compound 0.0316 µM, first compound 10 µM
# [7] = second compound 0.1 µM, first compound 0.0316 µM
# [8] = second compound 0.1 µM, first compound 0.1 µM
# [9] = second compound 0.1 µM, first compound 0.316 µM
# [10] = second compound 0.1 µM, first compound 1 µM
# [11] = second compound 0.1 µM, first compound 3.16 µM
# [12] = second compound 0.1 µM, first compound 10 µM
# [13] = second compound 0.316 µM, first compound 0.0316 µM
# [14] = second compound 0.316 µM, first compound 0.1 µM
# [15] = second compound 0.316 µM, first compound 0.316 µM
# [16] = second compound 0.316 µM, first compound 1 µM
# [17] = second compound 0.316 µM, first compound 3.16 µM
# [18] = second compound 0.316 µM, first compound 10 µM
# [19] = second compound 1 µM, first compound 0.0316 µM
# [20] = second compound 1 µM, first compound 0.1 µM
# [21] = second compound 1 µM, first compound 0.316 µM
# [22] = second compound 1 µM, first compound 1 µM
# [23] = second compound 1 µM, first compound 3.16 µM
# [24] = second compound 1 µM, first compound 10 µM
# [25] = second compound 3.16 µM, first compound 0.0316 µM
# [26] = second compound 3.16 µM, first compound 0.1 µM
# [27] = second compound 3.16 µM, first compound 0.316 µM
# [28] = second compound 3.16 µM, first compound 1 µM
# [29] = second compound 3.16 µM, first compound 3.16 µM
# [30] = second compound 3.16 µM, first compound 10 µM
# [31] = second compound 10 µM, first compound 0.0316 µM
# [32] = second compound 10 µM, first compound 0.1 µM
# [33] = second compound 10 µM, first compound 0.316 µM
# [34] = second compound 10 µM, first compound 1 µM
# [35] = second compound 10 µM, first compound 3.16 µM
# [36] = second compound 10 µM, first compound 10 µM
# 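Note: spheroids exposed to agents for seven days before reading.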
# 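Throughout, for viability, T/C: 100% = DMSO vehicle control viability.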
compound,measurement,setting,value
Nc1ccn(C2OC(CO)C(O)C2(F)F)c(=O)n1 (stereo unspecified) + CN1CCN(c2cc(C(=O)Nc3cc4cc(-c5cnn(C)c5)ccc4cn3)ccn2)CC1,IC50,second compound 0.0316 µM,43.2 nM
same,IC50,second compound 0.1 µM,< 31.6 nM
same,IC50,second compound 0.316 µM,< 31.6 nM
same,IC50,second compound 1 µM,< 31.6 nM
same,IC50,second compound 3.16 µM,< 31.6 nM
same,IC50,second compound 10 µM,< 31.6 nM
same,"viability, T/C",[1],60.1%
same,"viability, T/C",[2],22.9%
same,"viability, T/C",[3],20.5%
same,"viability, T/C",[4],19.9%
same,"viability, T/C",[5],24.1%
same,"viability, T/C",[6],22.6%
same,"viability, T/C",[7],36%
same,"viability, T/C",[8],22.9%
same,"viability, T/C",[9],16.1%
same,"viability, T/C",[10],16.9%
same,"viability, T/C",[11],18.9%
same,"viability, T/C",[12],17.9%
same,"viability, T/C",[13],15.4%
same,"viability, T/C",[14],10.9%
same,"viability, T/C",[15],11.6%
same,"viability, T/C",[16],9.15%
same,"viability, T/C",[17],13.3%
same,"viability, T/C",[18],10.8%
same,"viability, T/C",[19],1.8%
same,"viability, T/C",[20],1.09%
same,"viability, T/C",[21],1.22%
same,"viability, T/C",[22],1.31%
same,"viability, T/C",[23],1.04%
same,"viability, T/C",[24],1.02%
same,"viability, T/C",[25],0.72%
same,"viability, T/C",[26],0.59%
same,"viability, T/C",[27],0.75%
same,"viability, T/C",[28],0.76%
same,"viability, T/C",[29],0.87%
same,"viability, T/C",[30],0.72%
same,"viability, T/C",[31],0.2%
same,"viability, T/C",[32],0.2%
same,"viability, T/C",[33],0.21%
same,"viability, T/C",[34],0.25%
same,"viability, T/C",[35],0.24%
same,"viability, T/C",[36],0.22%
O=C(c1cc(Cc2n[nH]c(=O)c3ccccc23)ccc1F)N1CCN(C(=O)C2CC2)CC1 + CN1CCN(c2cc(C(=O)Nc3cc4cc(-c5cnn(C)c5)ccc4cn3)ccn2)CC1,IC50,second compound 0.0316 µM,> 10000 nM
same,IC50,second compound 0.1 µM,537 nM
same,IC50,second compound 0.316 µM,< 31.6 nM
same,IC50,second compound 1 µM,< 31.6 nM
same,IC50,second compound 3.16 µM,< 31.6 nM
same,IC50,second compound 10 µM,< 31.6 nM
same,"viability, T/C",[1],76.5%
same,"viability, T/C",[2],91.6%
same,"viability, T/C",[3],71.2%
same,"viability, T/C",[4],90.3%
same,"viability, T/C",[5],68.5%
same,"viability, T/C",[6],64.3%
same,"viability, T/C",[7],51.5%
same,"viability, T/C",[8],46.6%
same,"viability, T/C",[9],49.7%
same,"viability, T/C",[10],58.5%
same,"viability, T/C",[11],49.8%
same,"viability, T/C",[12],43.5%
same,"viability, T/C",[13],24.3%
same,"viability, T/C",[14],22.4%
same,"viability, T/C",[15],20%
same,"viability, T/C",[16],18%
same,"viability, T/C",[17],21.4%
same,"viability, T/C",[18],17.5%
same,"viability, T/C",[19],2.03%
same,"viability, T/C",[20],1.38%
same,"viability, T/C",[21],1.73%
same,"viability, T/C",[22],1.56%
same,"viability, T/C",[23],1.8%
same,"viability, T/C",[24],2%
same,"viability, T/C",[25],0.89%
same,"viability, T/C",[26],1.08%
same,"viability, T/C",[27],0.76%
same,"viability, T/C",[28],1.05%
same,"viability, T/C",[29],0.74%
same,"viability, T/C",[30],0.87%
same,"viability, T/C",[31],0.16%
same,"viability, T/C",[32],0.22%
same,"viability, T/C",[33],0.23%
same,"viability, T/C",[34],0.22%
same,"viability, T/C",[35],0.3%
same,"viability, T/C",[36],0.31%
O=c1[nH]cc(F)c(=O)[nH]1 + CN1CCN(c2cc(C(=O)Nc3cc4cc(-c5cnn(C)c5)ccc4cn3)ccn2)CC1,IC50,second compound 0.0316 µM,505 nM
same,IC50,second compound 0.1 µM,196 nM
same,IC50,second compound 0.316 µM,< 31.6 nM
same,IC50,second compound 1 µM,< 31.6 nM
same,IC50,second compound 3.16 µM,< 31.6 nM
same,IC50,second compound 10 µM,< 31.6 nM
same,"viability, T/C",[1],78.1%
same,"viability, T/C",[2],74.9%
same,"viability, T/C",[3],46.5%
same,"viability, T/C",[4],49.6%
same,"viability, T/C",[5],30.2%
same,"viability, T/C",[6],28.1%
same,"viability, T/C",[7],59.5%
same,"viability, T/C",[8],57.5%
same,"viability, T/C",[9],45.2%
same,"viability, T/C",[10],32.4%
same,"viability, T/C",[11],29%
same,"viability, T/C",[12],21.7%
same,"viability, T/C",[13],21.9%
same,"viability, T/C",[14],23.4%
same,"viability, T/C",[15],21.2%
same,"viability, T/C",[16],16.1%
same,"viability, T/C",[17],15.7%
same,"viability, T/C",[18],13.4%
same,"viability, T/C",[19],1.26%
same,"viability, T/C",[20],1.5%
same,"viability, T/C",[21],1.42%
same,"viability, T/C",[22],1.31%
same,"viability, T/C",[23],1.3%
same,"viability, T/C",[24],1.65%
same,"viability, T/C",[25],0.71%
same,"viability, T/C",[26],0.91%
same,"viability, T/C",[27],0.78%
same,"viability, T/C",[28],0.61%
same,"viability, T/C",[29],0.63%
same,"viability, T/C",[30],0.59%
same,"viability, T/C",[31],0.15%
same,"viability, T/C",[32],0.14%
same,"viability, T/C",[33],0.15%
same,"viability, T/C",[34],0.13%
same,"viability, T/C",[35],0.18%
same,"viability, T/C",[36],0.19%
